Experimental findings from ChEMBL document CHEMBL5120969, “Identification of Monosaccharide Derivatives as Potent, Selective, and Orally Bioavailable Inhibitors of Human and Mouse Galectin-3” (J Med Chem, 2022) are described below.

The nature of series [1]: Oral bioavailability in C57BL6 mouse at 10 mg/kg measured upto 24 hrs by LC-MS/MS analysis. The series is classed as ADME, organism-based. To be noted: in vivo.
Series [2] can be described thus: AUC (0 to 24 hrs) in C57BL6 mouse at 10 mg/kg, po measured upto 24 hrs by LC-MS/MS analysis. In kind it is ADME, organism-based. The arrangement: dose 10 mg/kg, time < 24 hrs, route po. To be noted: in vivo.
Series [3] can be described thus: Cmax in C57BL6 mouse at 10 mg/kg, po measured upto 24 hrs by LC-MS/MS analysis. In kind it is ADME, organism-based. More on the design: time < 24 hrs, dose 10 mg/kg, route po. To be noted: in vivo.
Series [4] is described as follows: Volume of distribution at steady state in C57BL6 mouse at 2 mg/kg, iv measured upto 24 hrs by LC-MS/MS analysis. The series is classed as ADME, organism-based. Conditions: in vivo, read-out: Vdss.
Series [5] in a line: Clearance in C57BL6 mouse at 2 mg/kg, iv measured upto 24 hrs by LC-MS/MS analysis. The series is classed as ADME, organism-based. Conditions: in vivo.
A short description of series [6]: Permeability of the compound at pH 7.4 measured for 4 hrs by UV plate reader based PAMPA assay. The series is classed as ADME. Conditions: read-out: permeability. In general terms: In PAMPA a lipid-coated filter parts donor from acceptor wells.
A short description of series [7]: Permeability of the compound at pH 5.5 measured for 4 hrs by UV plate reader based PAMPA assay. The series is classed as ADME. To be noted: read-out: permeability.
Series [8] is described as follows: Metabolic stability of the compound in rat liver microsomes assessed as CYP450-mediated metabolism by measuring parent compound remaining at 0.5 uM measured after 10 mins in presence of NADPH by LC-MS/MS analysis. The series is classed as ADME, Microsome. To be noted: read-out: Stability.
The nature of series [9]: Metabolic stability of the compound in mouse liver microsomes assessed as CYP450-mediated metabolism by measuring parent compound remaining at 0.5 uM measured after 10 mins in presence of NADPH by LC-MS/MS analysis. To be noted: read-out: Stability. In kind it is ADME, Microsome. In general terms: Microsomes from liver hold many membrane-bound enzymes, among them those of drug oxidation.

For orientation: bioavailability means dose-corrected exposure relative to a reference, in per cent. Read a high bioavailability as good availability. Broadly, the AUC(0-t) is the area under the concentration-time curve up to a stated or last time point. A high value points to more exposure. In general, Cmax refers to the highest concentration seen after dosing. As a reminder, the clearance is the rate of elimination divided by the concentration. A low value points to a low capacity for elimination. As for `Cc1nc([C@@H]2O[C@H](CO)[C@H](O)[C@H](n3cc(-c4ccc(Br)c(F)c4F)nn3)[C@H]2O)n(-c2cc(Cl)ccc2C(F)(F)F)n1`, the bioavailability in [1] was determined as 40%. Also, the AUC(0-t) at 24 h in series [2] worked out at 40 µM·h. In [3], this compound returned a Cmax of 5 µM. Besides, the Vd in series [4] amounted to 2.4 L/kg. The compound further had a clearance in series [5] of 0.162 L/h/kg.
For the compound `COc1ccc(Cl)cc1-n1nc(C)nc1[C@@H]1O[C@H](CO)[C@H](O)[C@H](n2cc(-c3cc(F)c(F)c(F)c3)nn2)[C@H]1O`, the Papp at 4 h in series [6] stood at 140 nm/s; in series [7] it was 157 nm/s.
Regarding `Cc1nc([C@@H]2O[C@H](CO)[C@H](O)[C@H](n3cc(-c4cc(F)c(F)c(F)c4)nn3)[C@H]2O)n(-c2cc(Cl)ccc2C(F)(F)F)n1`, the Papp at 4 h in [6] is 369 nm/s; in series [7] it was 511 nm/s.
Turning to `Cc1nc([C@@H]2O[C@H](CO)[C@H](O)[C@H](n3cc(-c4cc(F)c(F)c(F)c4)nn3)[C@H]2O)n(-c2cc(Cl)ccc2C)n1`, the Papp at 4 h in series [6] came out at 181 nm/s; in series [7] it was 150 nm/s.
In the case of `Cc1nc([C@@H]2O[C@H](CO)[C@H](O)[C@H](n3cc(-c4ccc(Cl)c(F)c4F)nn3)[C@H]2O)n(-c2cc(Cl)ccc2C(F)(F)F)n1`, the AUC(0-t) at 24 h in series [2] is 37 µM·h. Further, the peak concentration (Cmax) in series [3] came to 3.6 µM.
Turning to `Cc1nc([C@@H]2O[C@H](CO)[C@H](O)[C@H](n3cc(-c4cc(F)c(F)c(F)c4)nn3)[C@H]2O)n(-c2cc(Cl)ccc2Cl)n1`, the results for the Papp at 4 h in [6] and in [7] were 304 nm/s and 247 nm/s, respectively.
For `Cc1nc([C@@H]2O[C@H](CO)[C@H](O)[C@H](n3cc(-c4cc(F)c(F)c(F)c4)nn3)[C@H]2O)n(-c2cc(Cl)ccc2Br)n1`, the Papp at 4 h in series [6] stood at 148 nm/s; in series [7], 145 nm/s.
For the compound `OC[C@H]1O[C@@H](n2nncc2-c2ccc(Cl)c(Cl)c2)[C@H](O)[C@@H](n2cc(-c3cc(F)c(F)c(F)c3)nn2)[C@H]1O`, the Papp at 4 h in series [6] stood at 70 nm/s.
Turning to `OC[C@H]1O[C@@H](c2ncnn2-c2cccc(Cl)c2)[C@H](O)[C@@H](n2cc(-c3cc(F)c(F)c(F)c3)nn2)[C@H]1O`, the Papp at 4 h in series [6] came out at 203 nm/s.
Consider `Cc1nc([C@@H]2O[C@H](CO)[C@H](O)[C@H](n3cc(-c4cc(F)c(F)c(F)c4)nn3)[C@H]2O)n(-c2cccc(Cl)c2)n1`, for which the Papp at 4 h in series [6] is 345 nm/s; in series [7], 363 nm/s.
The corresponding values for `Cc1nc([C@@H]2O[C@H](CO)[C@H](O)[C@H](n3cc(-c4cc(F)c(F)c(F)c4)nn3)[C@H]2O)n(-c2ccc(Cl)c(Cl)c2)n1` are 456 nm/s and 444 nm/s.
Consider `Cc1nc([C@@H]2O[C@H](CO)[C@H](O)[C@H](n3cc(-c4cc(F)c(F)c(F)c4)nn3)[C@H]2O)n(-c2cccc(Cl)c2Cl)n1`, for which the Papp at 4 h in series [6] was 452 nm/s; in series [7], 423 nm/s.
Regarding `Cc1nc([C@@H]2O[C@H](CO)[C@H](O)[C@H](n3cc(-c4cc(F)c(F)c(F)c4)nn3)[C@H]2O)n(-c2cc(Cl)ccc2F)n1`, the Papp at 4 h in series [6] was found to be 125 nm/s; in [7] it was 127 nm/s.
As for `Cc1nc([C@@H]2O[C@H](CO)[C@H](O)[C@H](n3cc(-c4cc(F)c(F)c(F)c4)nn3)[C@H]2O)n(-c2cc(Cl)cc(Cl)c2)n1`, the Papp at 4 h is 125 nm/s in series [6] and 108 nm/s in series [7].
With `Cc1nc([C@@H]2O[C@H](CO)[C@H](O)[C@H](n3cc(-c4cc(F)c(Cl)c(F)c4)nn3)[C@H]2O)n(-c2cc(Cl)ccc2C(F)(F)F)n1`, the bioavailability in [1] was found to be 100%. The compound also registered an AUC(0-t) at 24 h in series [2] of 40 µM·h. Also, the highest level in series [3] (Cmax) was 5 µM. Moreover, the Vd in series [4] is 1.7 L/kg. Moreover, the results for the remaining at 10 min, 0.5 µM in series [8] and in series [9] were 91% and 85%, respectively. The compound also yielded a clearance in series [5] of 0.42 L/h/kg.
For `OC[C@H]1O[C@@H](n2nncc2-c2cccc(Cl)c2)[C@H](O)[C@@H](n2cc(-c3cc(F)c(F)c(F)c3)nn2)[C@H]1O`, the Papp at 4 h in [6] is 33 nm/s; in series [7], 31 nm/s.
Take `OC[C@H]1O[C@@H](c2nncn2-c2cccc(Cl)c2)[C@H](O)[C@@H](n2cc(-c3cc(F)c(F)c(F)c3)nn2)[C@H]1O`: in series [6], the Papp at 4 h worked out at 6 nm/s.
